Experiment in all cases: relative viability (nuclei count vs DMSO), 5 days (fraction); higher = more cells survive
Compound in assay [1]: CS(=O)(=O)c1ccc(-c2cnc(N)c(C(=O)Nc3ccccc3)n2)cc1 [VE-821] + N=C(N)NC(=N)NCCc1ccccc1 [Phenformin] (partner 250 µM)
A digest of the protocol:
(§1)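 Lung cancer cell lines, seeded in 1536-well plates, were treated the following day by pin tool with a single drug or with five library-drug doses (not always all listed) in √10 steps on top of a fixed anchor-drug dose. Cells were fixed and nuclei stained in one step after 5 days, and nuclei were counted. Relative viability is the nuclei count for treated wells divided by that for vehicle wells, reported as medians of duplicate plates.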

Compound in assay [2]: CS(=O)(=O)c1ccc(C(=O)Nc2ccc(Cl)c(-c3ccccn3)c2)c(Cl)c1 [Vismodegib] + C[C@@H](Oc1cc(-c2cnn(C3CCNCC3)c2)cnc1N)c1c(Cl)ccc(F)c1Cl [Crizotinib] (partner 1 µM)
A digest of the protocol: as §1

Compound in assay [3]: N#CC[C@H](C1CCCC1)n1cc(-c2ncnc3[nH]ccc23)cn1 [Ruxolitinib] + CS(=O)(=O)CCNCc1ccc(-c2ccc3ncnc(Nc4ccc(OCc5cccc(F)c5)c(Cl)c4)c3c2)o1 [Lapatinib] (partner 2 µM)
The method, boiled down:
as §1

Compound in assay [4]: CS(=O)(=O)c1ccc(C(=O)Nc2ccc(Cl)c(-c3ccccn3)c2)c(Cl)c1 [Vismodegib] + CCNC(=O)c1noc(-c2cc(C(C)C)c(O)cc2O)c1-c1ccc(CN2CCOCC2)cc1 [Luminespib] (partner 0.01 µM)
The method, boiled down: as §1

Experimental findings from the supplement of paper PMC10307832 are described below.

In the case of HCC-78, the relative viability turned out to be 0.646 in assay [1] (first compound 0.08 µM); 0.639 in assay [1] (first compound 0.253 µM); 0.746 in assay [1] (first compound 0.8 µM); 0.731 in assay [1] (first compound 2.53 µM); 0.617 in assay [1] (first compound 8 µM); 0.307 in assay [2] (first compound 0.08 µM). In addition, the relative viability in assay [2] (first compound 0.253 µM) worked out at 0.351; in assay [2] (first compound 0.8 µM) it was 0.286; in assay [2] (first compound 2.53 µM) it was 0.351; in assay [2] (first compound 8 µM), 0.347; in assay [3] (first compound 0.08 µM), 0.37; in assay [3] (first compound 0.253 µM) it was 0.294. In addition, the relative viability was 0.441 in assay [3] (first compound 0.8 µM), 0.553 in assay [3] (first compound 2.53 µM) and 0.199 in assay [3] (first compound 8 µM).

For the cell line HCC-366, the relative viability in assay [1] (first compound 0.08 µM) was found to be 0.709; in assay [1] (first compound 0.253 µM) it was 0.57; in assay [1] (first compound 0.8 µM), 0.555; in assay [1] (first compound 2.53 µM), 0.502; in assay [1] (first compound 8 µM), 0.12; in assay [2] (first compound 0.08 µM) it was 0.623. Further, the relative viability turned out to be 0.567 in assay [2] (first compound 0.253 µM); 0.501 in assay [2] (first compound 0.8 µM); 0.508 in assay [2] (first compound 2.53 µM); 0.566 in assay [2] (first compound 8 µM); 1.11 in assay [3] (first compound 0.08 µM); 0.982 in assay [3] (first compound 0.253 µM). The relative viability in assay [3] (first compound 0.8 µM) stood at 1.1; in assay [3] (first compound 2.53 µM) it was 0.937; in assay [3] (first compound 8 µM), 0.747.

Turning to HCC-827, the relative viability was 0.425 in assay [1] (first compound 0.08 µM); 0.398 in assay [1] (first compound 0.253 µM); 0.391 in assay [1] (first compound 0.8 µM); 0.458 in assay [1] (first compound 2.53 µM); 0.335 in assay [1] (first compound 8 µM); 0.658 in assay [4] (first compound 0.08 µM). Moreover, the relative viability is 0.762 in assay [4] (first compound 0.253 µM); 0.691 in assay [4] (first compound 0.8 µM); 0.589 in assay [4] (first compound 2.53 µM); 0.733 in assay [4] (first compound 8 µM); 0.893 in assay [2] (first compound 0.08 µM); 0.888 in assay [2] (first compound 0.253 µM). For the same cell line, the relative viability in assay [2] (first compound 0.8 µM) is 0.985; in assay [2] (first compound 2.53 µM), 0.908; in assay [2] (first compound 8 µM), 0.887; in assay [3] (first compound 0.253 µM), 0.196; in assay [3] (first compound 0.8 µM) it was 0.172; in assay [3] (first compound 2.53 µM), 0.212. In addition, in assay [3] (first compound 8 µM), the relative viability turned out to be 0.225.

In the case of HOP-62, the relative viability is 0.671 in assay [1] (first compound 0.08 µM); 0.611 in assay [1] (first compound 0.253 µM); 0.77 in assay [1] (first compound 0.8 µM); 0.696 in assay [1] (first compound 2.53 µM); 0.667 in assay [1] (first compound 8 µM); 0.916 in assay [4] (first compound 0.08 µM). Also, the relative viability was 0.914 in assay [4] (first compound 0.253 µM); 0.981 in assay [4] (first compound 0.8 µM); 0.93 in assay [4] (first compound 2.53 µM); 0.877 in assay [4] (first compound 8 µM); 0.991 in assay [2] (first compound 0.08 µM); 0.905 in assay [2] (first compound 0.253 µM). Further, the relative viability in assay [2] (first compound 0.8 µM) turned out to be 0.867; in assay [2] (first compound 2.53 µM), 0.503; in assay [2] (first compound 8 µM), 0.908; in assay [3] (first compound 0.253 µM), 1.07; in assay [3] (first compound 0.8 µM) it was 1.16; in assay [3] (first compound 2.53 µM), 0.91. The relative viability in assay [3] (first compound 8 µM) was 0.914.

In the case of IA-LM, the relative viability was found to be 0.719 in assay [2] (first compound 0.08 µM); 0.769 in assay [2] (first compound 0.253 µM); 0.906 in assay [2] (first compound 0.8 µM); 0.681 in assay [2] (first compound 2.53 µM); 0.94 in assay [2] (first compound 8 µM); 0.903 in assay [3] (first compound 0.08 µM). Further, the relative viability in assay [3] (first compound 0.253 µM) turned out to be 0.657; in assay [3] (first compound 0.8 µM), 1.04; in assay [3] (first compound 2.53 µM) it was 1.01; in assay [3] (first compound 8 µM) it was 0.477.

Regarding LC-2-ad, the relative viability in assay [1] (first compound 0.08 µM) turned out to be 0.666; in assay [1] (first compound 0.253 µM), 0.593; in assay [1] (first compound 0.8 µM), 0.661; in assay [1] (first compound 2.53 µM), 0.686; in assay [1] (first compound 8 µM) it was 0.591; in assay [4] (first compound 0.08 µM) it was 1.01. The relative viability in assay [4] (first compound 0.253 µM) was 0.957; in assay [4] (first compound 0.8 µM), 0.975; in assay [4] (first compound 2.53 µM), 0.955; in assay [4] (first compound 8 µM), 1.06; in assay [2] (first compound 0.08 µM), 0.419; in assay [2] (first compound 0.253 µM), 0.477. Besides, the relative viability in assay [2] (first compound 0.8 µM) stood at 0.434; in assay [2] (first compound 2.53 µM), 0.37; in assay [2] (first compound 8 µM), 0.469; in assay [3] (first compound 0.08 µM), 0.989; in assay [3] (first compound 0.253 µM), 0.878; in assay [3] (first compound 0.8 µM) it was 0.868. Besides, the relative viability in assay [3] (first compound 2.53 µM) was 0.773; in assay [3] (first compound 8 µM) it was 0.34.

As for LCLC-97TM1, the relative viability in assay [1] (first compound 0.08 µM) was 0.413; in assay [1] (first compound 0.253 µM), 0.454; in assay [1] (first compound 0.8 µM) it was 0.426; in assay [1] (first compound 2.53 µM), 0.457; in assay [1] (first compound 8 µM), 0.435; in assay [4] (first compound 0.08 µM) it was 0.699. The relative viability in assay [4] (first compound 0.253 µM) came to 0.725; in assay [4] (first compound 0.8 µM), 0.746; in assay [4] (first compound 2.53 µM), 0.76; in assay [4] (first compound 8 µM), 0.826; in assay [2] (first compound 0.8 µM), 0.418; in assay [2] (first compound 8 µM) it was 0.355. The relative viability in assay [3] (first compound 0.08 µM) worked out at 0.877; in assay [3] (first compound 0.253 µM), 0.833; in assay [3] (first compound 0.8 µM) it was 0.852; in assay [3] (first compound 2.53 µM), 0.83; in assay [3] (first compound 8 µM), 1.21.

As to LCLC-103H, the relative viability in assay [1] (first compound 0.08 µM) was determined as 0.335; in assay [1] (first compound 0.253 µM), 0.31; in assay [1] (first compound 0.8 µM), 0.352; in assay [1] (first compound 2.53 µM), 0.351; in assay [1] (first compound 8 µM), 0.269; in assay [4] (first compound 0.08 µM) it was 1.03. The relative viability is 0.968 in assay [4] (first compound 0.253 µM); 0.93 in assay [4] (first compound 0.8 µM); 0.884 in assay [4] (first compound 2.53 µM); 1.07 in assay [4] (first compound 8 µM); 0.871 in assay [2] (first compound 0.08 µM); 1.04 in assay [2] (first compound 0.253 µM). Further, the relative viability in assay [2] (first compound 0.8 µM) was 0.955; in assay [2] (first compound 2.53 µM), 1.02; in assay [2] (first compound 8 µM), 1.04.

With LK-2, the relative viability in assay [1] (first compound 0.08 µM) came out at 0.639; in assay [1] (first compound 0.253 µM), 0.366; in assay [1] (first compound 0.8 µM) it was 0.459; in assay [1] (first compound 2.53 µM), 0.925; in assay [1] (first compound 8 µM), 0.374; in assay [4] (first compound 0.08 µM) it was 0.175. The relative viability is 0.185 in assay [4] (first compound 0.253 µM); 0.207 in assay [4] (first compound 0.8 µM); 0.151 in assay [4] (first compound 2.53 µM); 0.214 in assay [4] (first compound 8 µM); 0.247 in assay [2] (first compound 0.08 µM); 0.248 in assay [2] (first compound 0.253 µM). For the same cell line, the relative viability is 0.215 in assay [2] (first compound 0.8 µM); 0.203 in assay [2] (first compound 2.53 µM); 0.239 in assay [2] (first compound 8 µM); 0.893 in assay [3] (first compound 0.253 µM); 1.23 in assay [3] (first compound 0.8 µM); 0.997 in assay [3] (first compound 2.53 µM). In addition, the relative viability in assay [3] (first compound 8 µM) was 0.964.
